pIC50: −log10 of the molar value. ≈ marks a conversion by molar mass, not a printed value. Like-named read-outs stand apart in the source and are kept apart here.
Tests used:
[1] = CHI Log D procedure; assay type: physicochemical; settings: for chromatographic logD / logD: pH 7.4, CHI Log D; for CHI Log D: pH 7.4
[2] = Solubility in PBS; assay type: physicochemical
In short: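 PBS sample ultracentrifuged; supernatant run on HPLC vs. 50 μM peptide in DMSO standard. Solubility = (PBS peak area / DMSO peak area) × 50 uM.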

[3] = molecular target: T1, full-length beta-Catenin (Uniprot ID P35222) (Homo sapiens, UniProt P35222); assay: Fluorescence polarization IC50 (beta-catenin / 5FAM-TCF4 10-53 competition); assay type: binding
T1 construct: 10 nM full-length beta-Catenin (Uniprot ID P35222)
T1 sequence (P35222 1-781): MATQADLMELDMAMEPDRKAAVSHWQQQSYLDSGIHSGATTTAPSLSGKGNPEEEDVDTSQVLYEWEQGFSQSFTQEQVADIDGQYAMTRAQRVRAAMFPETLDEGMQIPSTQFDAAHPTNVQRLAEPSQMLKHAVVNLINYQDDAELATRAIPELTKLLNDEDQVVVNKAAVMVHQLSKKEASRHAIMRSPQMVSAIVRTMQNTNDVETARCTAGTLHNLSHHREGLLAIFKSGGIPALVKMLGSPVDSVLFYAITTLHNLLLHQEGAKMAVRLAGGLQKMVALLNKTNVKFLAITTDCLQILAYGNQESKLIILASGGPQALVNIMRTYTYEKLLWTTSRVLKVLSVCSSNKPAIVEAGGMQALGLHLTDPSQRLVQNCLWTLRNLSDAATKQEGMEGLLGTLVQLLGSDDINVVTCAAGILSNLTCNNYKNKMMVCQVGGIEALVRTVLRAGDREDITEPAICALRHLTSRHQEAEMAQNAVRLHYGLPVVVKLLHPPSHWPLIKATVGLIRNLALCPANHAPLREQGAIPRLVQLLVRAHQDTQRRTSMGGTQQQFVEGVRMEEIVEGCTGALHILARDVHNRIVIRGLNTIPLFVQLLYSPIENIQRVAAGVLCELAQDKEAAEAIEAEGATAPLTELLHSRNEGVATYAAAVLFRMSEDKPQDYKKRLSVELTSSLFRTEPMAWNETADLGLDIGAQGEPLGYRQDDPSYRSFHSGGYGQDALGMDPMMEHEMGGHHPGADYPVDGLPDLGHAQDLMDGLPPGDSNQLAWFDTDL

[4] = Table E2-1, read-out: beta-Catenin FP IC50
[5] = fluorescence polarization, read-out: beta-Catenin FP IC50
[6] = fluorescence polarization, beta-catenin, read-out: FP EC50

Row | chromatographic logD [1] | pIC50 [3, 4] | CHI Log D [1] | Solubility ([2]; Solubility (uM)) | Solubility [2] | Structure (SMILES) | further results
1 | 2.02 | 5.30 | – | – | – | CC(=O)N1CCC[C@]12CC=CCCCC1(CCCC=CCCCCCC[C@@](C)(C(=O)N[C@@H](Cc3ccccc3)C(=O)N[C@@H](Cc3c[nH]c4ccccc34)C(=O)N[C@@H](CCC(N)=O)C(N)=O)NC(=O)[C@H](C(C)C)NC(=O)C(Cc3cncn3C)NC(=O)[C@H](C)NC(=O)[C@H](C)NC(=O)[C@H](CC(=O)O)NC(=O)[C@H](CC(=O)O)NC1=O)NC(=O)[C@H](C)NC(=O)[C@H](CC(=O)O)NC2=O (single isomer, unassigned) [I-331, Ac-PL3-Asp-Ala-B5-Asp-Asp-Ala-Ala-3meH-Val-S8-Phe-Trp-Gln-NH2] | solubility at 15 min ([2]; Solubility (uM)): 41 µM (≈ 73.2 µg/mL)
2 | 2.1 | – | – | – | – | CC(=O)N1CCC[C@]12CC=CCCCC1(CCCC=CCCCCCC[C@@](C)(C(=O)N[C@@H](Cc3ccccc3)C(=O)N[C@@H](Cc3csc4ccccc34)C(=O)NC(Cc3cncn3C)C(N)=O)NC(=O)[C@H](CC(N)=O)NC(=O)[C@H](Cc3ccccc3)NC(=O)[C@H](C)NC(=O)[C@H](C)NC(=O)[C@H](CCC(=O)O)NC(=O)[C@H](CC(=O)O)NC1=O)NC(=O)[C@H](C)NC(=O)[C@H](CC(=O)O)NC2=O (single isomer, unassigned) [I-480, Ac-PL3-Asp-Ala-B5-Asp-Glu-Ala-Ala-Phe-Asn-S8-Phe-BztA-3MeH-NH2] | solubility at 15 min ([2]; Solubility (uM)): 36 µM (≈ 66.6 µg/mL); pIC50 [3, 5]: 6.75
3 | – | – | 2.133 | – | – | CC(=O)N1CCC[C@]12CC=CCCCC1(CCCC=CCCCCCC[C@@](C)(C(=O)N[C@@H](Cc3ccccc3)C(=O)N[C@@H](Cc3csc4ccccc34)C(=O)NC(Cc3cncn3C)C(N)=O)NC(=O)[C@H](CC(N)=O)NC(=O)[C@H](Cc3ccccc3)NC(=O)[C@H](C)NC(=O)[C@H](C)NC(=O)[C@H](CCC(=O)O)NC(=O)[C@H](CC(=O)O)NC1=O)NC(=O)[C@H](C)NC(=O)[C@H](CC(=O)O)NC2=O (single isomer, unassigned) [I-481, Ac-PL3-Asp-Ala-B5-Asp-Glu-Ala-Ala-Phe-Asn-S8-Phe-BztA-3MeH-NH2] | Solubility ([2]; 15 min): 30 µM (≈ 55.5 µg/mL); pIC50 [3, 5]: 7.38
4 | 1.69 | 5.30 | – | 49 µM (≈ 87.3 µg/mL) | – | CC(=O)N1CCC[C@]12CC=CCCCC1(CCCC=CCCCCC[C@@](C)(C(=O)N[C@@H](Cc3ccccc3)C(=O)N[C@@H](Cc3c[nH]c4ccccc34)C(=O)N[C@@H](CCC(N)=O)C(N)=O)NC(=O)[C@H](C(C)C)NC(=O)[C@H](Cc3ccccc3)NC(=O)[C@H](C)NC(=O)[C@H](C)NC(=O)[C@H](CCC(=O)O)NC(=O)[C@H](CC(=O)O)NC1=O)NC(=O)[C@H](C)NC(=O)[C@H](CC(=O)O)NC2=O (stereo partly drawn) [I-132, Ac-PL3-Asp-Ala-B5-Asp-Glu-Ala-Ala-Phe-Val-S7-Phe-Trp-Gln-NH2] | –
5 | 2.19 | 5.64 | – | 48 µM (≈ 86.7 µg/mL) | – | CC(=O)N1CCC[C@]12CC=CCCCC1(CCCC=CCCCCCC[C@@](C)(C(=O)N[C@@H](Cc3ccccc3)C(=O)N[C@@H](Cc3ccc4ccccc4c3)C(=O)N[C@@H](CCC(N)=O)C(N)=O)NC(=O)[C@H](C(C)C)NC(=O)[C@H](Cc3ccccc3)NC(=O)[C@H](C)NC(=O)[C@H](C)NC(=O)[C@H](CCC(=O)O)NC(=O)[C@H](CC(=O)O)NC1=O)NC(=O)[C@H](C)NC(=O)[C@H](CC(=O)O)NC2=O (stereo partly drawn) [I-140, Ac-PL3-Asp-Ala-B5-Asp-Glu-Ala-Ala-Phe-Val-S8-Phe-2NapA-Gln-NH2] | –
6 | – | 5.42 | 2.032 | – | 36 µM (≈ 64.8 µg/mL) | CC(=O)N1CCC[C@]12CC=CCCCC1(CCCC=CCCCCCC[C@@](C)(C(=O)N[C@@H](Cc3ccccc3)C(=O)N[C@@H](Cc3c[nH]c4ccccc34)C(=O)N[C@@H](CCC(N)=O)C(N)=O)NC(=O)[C@H](C(C)C)NC(=O)[C@H](Cc3cccc(F)c3)NC(=O)[C@H](C)NC(=O)[C@H](C)NC(=O)[C@H](CC(=O)O)NC(=O)[C@H](CC(=O)O)NC1=O)NC(=O)[C@H](C)NC(=O)[C@H](CC(=O)O)NC2=O (stereo partly drawn) [I-265, Ac-PL3-Asp-Ala-B5-Asp-Asp-Ala-Ala-3FF-Val-S8-Phe-Trp-Gln-NH2] | pIC50 [3, 6]: 5.42
7 | 2.05 | 5.30 | – | 37 µM (≈ 67.2 µg/mL) | – | CC(=O)N1CCC[C@]12CC=CCCCC1(CCCC=CCCCCCC[C@@](C)(C(=O)N[C@@H](Cc3ccccc3)C(=O)N[C@@H](Cc3c[nH]c4ccccc34)C(=O)N[C@@H](CCC(N)=O)C(N)=O)NC(=O)[C@H](C(C)C)NC(=O)[C@H](Cc3ccc(F)c(F)c3)NC(=O)[C@H](C)NC(=O)[C@H](C)NC(=O)[C@H](CC(=O)O)NC(=O)[C@H](CC(=O)O)NC1=O)NC(=O)[C@H](C)NC(=O)[C@H](CC(=O)O)NC2=O (stereo partly drawn) [I-267, Ac-PL3-Asp-Ala-B5-Asp-Asp-Ala-Ala-34FF-Val-S8-Phe-Trp-Gln-NH2] | –
8 | 2.44 | 5.30 | – | – | 10 µM (≈ 18.1 µg/mL) | CC(=O)N1CCC[C@]12CC=CCCCC1(CCCC=CCCCCCC[C@@](C)(C(=O)N[C@@H](Cc3ccccc3)C(=O)N[C@@H](Cc3c[nH]c4ccccc34)C(=O)N[C@@H](CCC(N)=O)C(N)=O)NC(=O)[C@H](C(C)C)NC(=O)[C@H](Cc3ccccc3)NC(=O)[C@H](C)NC(=O)[C@H](C)NC(=O)[C@H](Cc3cccnc3)NC(=O)[C@H](CC(=O)O)NC1=O)NC(=O)[C@H](C)NC(=O)[C@H](CC(=O)O)NC2=O (stereo partly drawn) [I-271, Ac-PL3-Asp-Ala-B5-Asp-3PyrA-Ala-Ala-Phe-Val-S8-Phe-Trp-Gln-NH2] | –
9 | – | 5.40 | 2.348 | – | 10 µM (≈ 18 µg/mL) | CC(=O)N1CCC[C@]12CC=CCCCC1(CCCC=CCCCCCC[C@@](C)(C(=O)N[C@@H](Cc3ccccc3)C(=O)N[C@@H](Cc3c[nH]c4ccccc34)C(=O)N[C@@H](CCC(N)=O)C(N)=O)NC(=O)[C@H](C(C)C)NC(=O)[C@H](Cc3ccccc3)NC(=O)[C@H](C)NC(=O)[C@H](C)NC(=O)[C@H](Cc3c[nH]cn3)NC(=O)[C@H](CC(=O)O)NC1=O)NC(=O)[C@H](C)NC(=O)[C@H](CC(=O)O)NC2=O (stereo partly drawn) [I-305, Ac-PL3-Asp-Ala-B5-Asp-His-Ala-Ala-Phe-Val-S8-Phe-Trp-Gln-NH2] | pIC50 [3, 6]: 5.40
10 | 1.97 | 5.76 | – | 34 µM (≈ 60.8 µg/mL) | – | CC(=O)N1CCC[C@]12CC=CCCCC1(CCCC=CCCCCCC[C@@](C)(C(=O)N[C@@H](Cc3ccccc3)C(=O)N[C@@H](Cc3c[nH]c4ccccc34)C(=O)N[C@@H](CCC(N)=O)C(N)=O)NC(=O)[C@H](C(C)C)NC(=O)[C@H](Cc3ccsc3)NC(=O)[C@H](C)NC(=O)[C@H](C)NC(=O)[C@H](CC(=O)O)NC(=O)[C@H](CC(=O)O)NC1=O)NC(=O)[C@H](C)NC(=O)[C@H](CC(=O)O)NC2=O (stereo partly drawn) [I-326, Ac-PL3-Asp-Ala-B5-Asp-Asp-Ala-Ala-3Thi-Val-S8-Phe-Trp-Gln-NH2] | –
11 | – | – | – | – | 50 µM (≈ 104 µg/mL) | CC(=O)N1CCC[C@]12CC=CCCCC1(CCCC=CCCCCCC[C@@](C)(C(=O)N[C@@H](Cc3ccsc3)C(=O)N[C@@H](Cc3csc4ccccc34)C(=O)N[C@@H](CCC(N)=O)C(=O)N[C@H](C)C(=O)N[C@H](C)C(=O)N[C@H](C)C(N)=O)NC(=O)[C@H](CC(N)=O)NC(=O)[C@H](Cc3ccccc3)NC(=O)[C@H](C)NC(=O)[C@H](C)NC(=O)[C@H](CC(=O)O)NC(=O)[C@H](CC(=O)O)NC1=O)NC(=O)[C@H](CC(C)(C)C)NC(=O)[C@H](CC(=O)O)NC2=O (stereo partly drawn) [I-876, Ac-PL3-Asp-Npg-B5-Asp-Asp-Ala-Ala-Phe-Asn-S8-3Thi-BztA-Gln-dAla-dAla] | logD [1]: 2.26
12 | – | – | – | – | 50 µM (≈ 104 µg/mL) | CC(=O)N1CCC[C@]12CC=CCCCC1(CCCC=CCCCCCC[C@@](C)(C(=O)N[C@@H](Cc3ccsc3)C(=O)N[C@@H](Cc3csc4ccccc34)C(=O)N[C@@H](CCC(N)=O)C(=O)N[C@@H](C)C(=O)N[C@@H](C)C(=O)N[C@H](C)C(N)=O)NC(=O)[C@H](CC(N)=O)NC(=O)[C@H](Cc3ccccc3)NC(=O)[C@H](C)NC(=O)[C@H](C)NC(=O)[C@H](CC(=O)O)NC(=O)[C@H](CC(=O)O)NC1=O)NC(=O)[C@H](CC(C)(C)C)NC(=O)[C@H](CC(=O)O)NC2=O (stereo partly drawn) [I-877, Ac-PL3-Asp-Npg-B5-Asp-Asp-Ala-Ala-Phe-Asn-S8-3Thi-BztA-Gln-Ala-Ala] | logD [1]: 2.35
13 | – | – | 1.475 | – | 33 µM (≈ 69.5 µg/mL) | COCCOCCC(=O)NCCCC[C@@H]1NC(=O)[C@H](C)NC(=O)[C@H](CC(=O)O)NC(=O)[C@H](CC(=O)O)NC(=O)C2(CCCC=CCCCOC(=O)N3CC[C@@](C(=O)N[C@@H](Cc4ccsc4)C(=O)N[C@@H](Cc4csc5ccccc45)C(=O)N[C@@H](CCC(N)=O)C(N)=O)(C3)NC(=O)[C@H](CC(N)=O)NC(=O)[C@H](Cc3ccccc3)NC1=O)CCCC=CC[C@]1(CCCN1C(C)=O)C(=O)N[C@@H](CC(=O)O)C(=O)N[C@@H](CC(C)(C)C)C(=O)N2 (stereo partly drawn) [I-892, Ac-PL3-Asp-Npg-B5-Asp-Asp-Ala-[mPEG2]Lys-Phe-Asn-PyrS2-3Thi-BztA-Gln-NH2] | –

From patent US20240116985A1, “STAPLED PEPTIDES AND METHODS THEREOF” (priority 2020, published 2024)
